Results: patent publication US10300052B2, “Methods for increasing CFTR activity” (THE UAB RESEARCH FOUNDATION, priority 2012, dated 2019)

Key:
[1] = test system: CFBE41o-cells without WT CFTR complementation (parental cells); test: Short-circuit current (Isc) in Ussing chambers, parental CFBE41o- cells without detectable CFTR expression; type: cell-based, human; conditions: ivacaftor 10 μM after amiloride 100 μM and forskolin 100 nM; parental cells without detectable CFTR expression (FIG. 1A)
Method: (§1) CFBE41o-cells complemented by stable expression of WT-CFTR (by a lentivirus promoter) are shown in comparison to CFBE41o-cells without WT CFTR complementation (parental cells). *P<0.05, **P<0.005, n=5/condition.
(§2) The CFTR potentiator ivacaftor was chosen as an exemplary CFTR activator. The activity of ivacaftor was examined in WT-CFTR expressing cells.
(§3) Short-circuit current (Isc) was measured under voltage clamp conditions using MC8 voltage clamps and P2300 Ussing chambers (Physiologic Instruments, San Diego, Calif.) as previously described (2). Monolayers were initially bathed on both sides with identical Ringer's solutions containing (in mM) 115 NaCl, 25 NaHCO3, 2.4 KH2PO4, 1.24 K2HPO4, 1.2 CaCl2, 1.2 MgC2, 10 D-glucose (pH 7.4). Bath solutions were vigorously stirred and gassed with 95%02:5% CO2. Short-circuit current measurements were obtained using an epithelial voltage clamp (Physiologic Instruments). A one-second three-mV pulse was imposed every 10 seconds to monitor resistance calculated using Ohm's law. Where indicated, the mucosal bathing solution was changed to a low Cl-solution containing 1.2 NaCl and 115 Na+ gluconate, and all other components as above. Amiloride (100 μM) was added to block residual Na+ current, followed by the agonists forskolin, ivacaftor, and ATP as indicated (minimum five-min observation at each concentration). […]

[2] = molecular target: T1, WT-CFTR (Homo sapiens, UniProt P13569); test: Short-circuit current (Isc) in Ussing chambers, CFBE41o- cells with stable WT-CFTR expression; type: cell-based; conditions: ivacaftor 10 μM after amiloride 100 μM and forskolin 100 nM, Cl- secretory gradient; CFBE41o- with stable WT-CFTR (FIG. 1A)
T1 construct: expressed in transfected cells
Method: as §1, §2, §3

[3] = molecular target: T2, CFTR (Homo sapiens, UniProt P13569); test: Short-circuit current (Isc) in primary non-CF human bronchial epithelial (HBE) cells; type: cell-based; conditions: ivacaftor 10 μM after pre-stimulation with 100 nM forskolin, compared to forskolin alone (FIG. 1B)
T2 construct: from tissue; host or cells: normal human trachea/bronchus from donor explant organs
Method: In primary non-CF human bronchial epithelial (HBE) cells, ivacaftor also augmented CFTR-dependent anion transport activity following pre-stimulation with 100 nM forskolin, a dose chosen to induce cAMP levels matching CSE-exposed cells, increasing CFTR-dependent short-circuit current (Isc) compared to that stimulated by forskolin alone (FIG. 1B).
Primary human bronchial epithelial (HBE) cells were derived from lung explants after written informed consent was obtained from CF and non-CF subjects with confirmed CFTR genetics by methods described previously. Briefly, tissues were debrided immediately after surgical resection, washed twice in Minimum Essential Media (MEM) with 0.5 mg/ml DTT (Sigma-Aldrich, St. Louis, Mo.) and 25 U/ml DNAse I (Roche, Basel, Switzerland), and then placed in dissociation media containing MEM, 2.5 U/ml DNAse I, 100 μg/ml ceftazidime, 80 μg/ml tobramycin, 1.25 μg/ml amphotericin B, and 4.4 U/ml pronase (Sigma-Aldrich) for 24-36 h at 4° C. […]
Short-circuit current (Isc) was measured under voltage clamp conditions using MC8 voltage clamps and P2300 Ussing chambers (Physiologic Instruments, San Diego, Calif.) as previously described (2). […] A one-second three-mV pulse was imposed every 10 seconds to monitor resistance calculated using Ohm's law. […]

[4] = test system: HBE cells; test: Airway surface liquid (ASL) depth measurement by confocal microscopy in HBE monolayers; type: cell-based, human; conditions: ivacaftor 10 μM basolateral, 24 h, confocal (FIGS. 2A, 2B)
Method: White scale bars designate 10 μm.
Dotted line indicates ASL depth of a panel of CF HBE cells using the exact same method.
The apical surfaces of HBE cells were washed three times and then test compounds added to the basolateral compartment 24 h prior to labeling. Cells were stained with CMFDA (100 μM) in the cell culture medium for 1 hr. Texas red dye (25 μl at 2 mg/ml in Fc70) was added apically and cells allowed to equilibrate 2 h at 37° C. Transwell membranes were placed in sterile glass bottom dish coated with MEM, and imaged with a Carl Zeiss (Peabody, Mass.) confocal microscope using 20× (numerical aperture 0.88, working distance 0.55 mm) air objective lens. Cells were visualized with DIC optics to evaluate cell morphology before initiating fluorescence microscopy. Subsequently, Zscan confocal fluorescent microscopy images were acquired from the top of the ASL through the top of the cell surface. XZ scans were analyzed using Zen2008 software at four ROI per well each located 1 mm from the filter periphery and at each quadrant; 5 estimates of ASL depth were taken equally dispersed across each ROI (7, 9).

[5] = molecular target: G551D-CFTR (Homo sapiens, UniProt P13569, G551D); conditions: in vitro and in CF subjects harboring the G551D-CFTR defect; reported; cited from earlier work
Chain of G551D-CFTR (P13569 whole entry G551D): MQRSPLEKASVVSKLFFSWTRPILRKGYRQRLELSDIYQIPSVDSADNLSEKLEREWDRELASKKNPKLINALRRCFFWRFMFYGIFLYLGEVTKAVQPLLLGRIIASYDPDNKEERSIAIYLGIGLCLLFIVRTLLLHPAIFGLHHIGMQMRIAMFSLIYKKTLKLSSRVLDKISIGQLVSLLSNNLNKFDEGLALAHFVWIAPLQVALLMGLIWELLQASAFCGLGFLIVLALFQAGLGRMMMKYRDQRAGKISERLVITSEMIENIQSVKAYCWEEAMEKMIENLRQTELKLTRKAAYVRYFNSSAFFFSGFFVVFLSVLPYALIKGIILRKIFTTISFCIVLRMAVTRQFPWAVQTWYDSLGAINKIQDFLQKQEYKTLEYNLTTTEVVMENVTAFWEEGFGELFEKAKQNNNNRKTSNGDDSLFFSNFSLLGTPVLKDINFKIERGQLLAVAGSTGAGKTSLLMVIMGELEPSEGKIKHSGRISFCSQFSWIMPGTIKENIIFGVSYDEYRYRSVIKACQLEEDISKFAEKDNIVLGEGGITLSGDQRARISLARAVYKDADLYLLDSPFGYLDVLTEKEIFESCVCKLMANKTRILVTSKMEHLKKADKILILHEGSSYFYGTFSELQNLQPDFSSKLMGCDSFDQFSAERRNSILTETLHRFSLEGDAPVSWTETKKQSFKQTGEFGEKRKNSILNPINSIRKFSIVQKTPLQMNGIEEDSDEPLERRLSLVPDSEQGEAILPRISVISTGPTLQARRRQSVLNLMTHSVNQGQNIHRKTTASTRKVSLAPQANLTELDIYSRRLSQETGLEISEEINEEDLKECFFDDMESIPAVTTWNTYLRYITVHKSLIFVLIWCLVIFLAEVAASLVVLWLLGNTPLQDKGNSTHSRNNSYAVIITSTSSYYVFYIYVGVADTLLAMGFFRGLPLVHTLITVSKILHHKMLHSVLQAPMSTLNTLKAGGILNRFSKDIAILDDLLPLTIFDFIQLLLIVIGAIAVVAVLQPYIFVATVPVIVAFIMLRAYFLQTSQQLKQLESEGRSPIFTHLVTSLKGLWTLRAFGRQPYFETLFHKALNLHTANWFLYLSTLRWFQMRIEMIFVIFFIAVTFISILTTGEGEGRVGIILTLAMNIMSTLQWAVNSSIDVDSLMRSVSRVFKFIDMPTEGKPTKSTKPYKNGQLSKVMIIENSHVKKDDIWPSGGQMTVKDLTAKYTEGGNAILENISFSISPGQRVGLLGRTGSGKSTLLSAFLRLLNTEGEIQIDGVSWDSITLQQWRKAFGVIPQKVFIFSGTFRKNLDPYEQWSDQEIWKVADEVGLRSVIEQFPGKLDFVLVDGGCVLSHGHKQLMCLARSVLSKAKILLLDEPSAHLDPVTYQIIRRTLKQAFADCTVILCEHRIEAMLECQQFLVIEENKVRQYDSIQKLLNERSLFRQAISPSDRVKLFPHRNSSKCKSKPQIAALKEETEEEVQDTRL

T1 sequence (P13569 whole entry): as the sequence (P13569 whole entry G551D) above, with D551G counted along it
T2 sequence (P13569 whole entry): as the sequence (P13569 whole entry G551D) above, with D551G counted along it

CC(C)(C)c1cc(C(C)(C)C)c(NC(=O)c2c[nH]c3ccccc3c2=O)cc1O [ivacaftor]
anion transport (Isc) [1]: no activity
anion transport (Isc) [2]: robust increases
CFTR-dependent anion transport activity (short-circuit current, Isc) [3]: augmented
ASL depth [4]: enhanced
cAMP mediated ion transport activity of CFTR encoding the gating mutation G551D-CFTR [5]: significantly augment
